≈ marks a conversion by molar mass, not a printed value. Calls of active or inactive are those of the source. The rule behind the calls is not given here.
Assays:
[1] = biological target: T1, Glucose-dependent insulinotropic receptor (Homo sapiens, UniProt Q8TDV5); test: Agonist activity at human GPR119 expressed in CHO cells assessed as cAMP level measured after 90 mins by HTRF based assay; format: functional, cell-based
T1 sequence (Q8TDV5 whole entry): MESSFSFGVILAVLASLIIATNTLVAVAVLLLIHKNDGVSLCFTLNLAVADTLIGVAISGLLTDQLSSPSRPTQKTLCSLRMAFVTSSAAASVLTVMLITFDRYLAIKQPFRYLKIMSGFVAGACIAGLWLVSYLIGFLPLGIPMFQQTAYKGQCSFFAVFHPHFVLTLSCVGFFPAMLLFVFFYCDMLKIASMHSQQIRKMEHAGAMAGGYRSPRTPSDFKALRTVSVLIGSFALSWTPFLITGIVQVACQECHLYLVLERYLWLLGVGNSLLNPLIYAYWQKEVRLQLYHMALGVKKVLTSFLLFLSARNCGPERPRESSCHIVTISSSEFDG

[2] = test system: Mus musculus; test: Anti-diabetic activity in male FATZO mouse assessed as reduction in blood glucose level by measuring reduction in AUC […] at 30 mg/kg pre-administered with compound for 30 min followed by glucose bolus addition and measured upto 120 min by oral glucose tolerance test relative to control; format: functional; parameters: scale not given: the % may be the effect or the level left; conditions: time <= 150 min, 2.5 h
[3] = test system: Mus musculus; test: Anti-diabetic activity in male db/db mouse assessed as reduction in blood glucose level administered twice a day preincubated with compound for 30 min followed by glucose bolus addition and measured upto 120 min by oral glucose tolerance test; format: functional, organism-based; conditions: dose 30-30 mg/kg, time <= 150.0 min
[4] = Oral bioavailability in Sprague-Dawley rat at 30 mg/kg measured upto 48 hrs by LC-MS/MS analysis; format: ADME, organism-based; conditions: in vivo
[5] = test system: Rattus norvegicus; test: Antidiabetic activity in high-fat diet induced obese female Sprague-Dawley rat model assessed as hypoglycemic effect at 3 to 30 mg/kg administered once daily for 5 weeks by oral glucose tolerance test; format: functional, organism-based; conditions: dose 3-30 mg/kg
[6] = test system: Rattus norvegicus; test: Antidiabetic activity high-fat diet induced obese female Sprague-Dawley rat model assessed as reduction in fasting glucose levels at 3 to 30 mg/kg measured after 37 days by oral glucose tolerance test; format: functional, organism-based; conditions: dose 3-30 mg/kg, time 37.0 day
[7] = test system: Rattus norvegicus; test: Antidiabetic activity high-fat diet induced female Sprague-Dawley rat model assessed as reduction in body weight at 3 to 30 mg/kg measured after 28 days by oral glucose tolerance test; format: functional, organism-based; conditions: dose 3-30 mg/kg, time 28.0 day
[8] = Oral bioavailability in Cynomolgus monkey at 30 mg/kg measured upto 48 hrs by LC-MS/MS analysis; format: ADME, organism-based, Macaca fascicularis; conditions: in vivo
[9] = Half-life in Sprague-Dawley rat at 30 mg/kg, po measured upto 48 hrs by LC-MS/MS analysis; format: ADME, organism-based; conditions: in vivo
[10] = Half-life in Beagle dog at 10 mg/kg, po measured upto 48 hrs by LC-MS/MS analysis; format: ADME, organism-based, Canis lupus familiaris; conditions: in vivo
[11] = Half-life in Cynomolgus monkey at 30 mg/kg, po measured upto 48 hrs by LC-MS/MS analysis; format: ADME, organism-based, Macaca fascicularis; conditions: in vivo
[12] = Microsomal stability in human liver microsome assessed as compound remaining measured upto 45 min in presence of NADPH by LC-MS analysis; format: ADME; conditions: liver microsomes, read-out: Stability
[13] = Microsomal stability in rat liver microsome assessed as compound remaining measured upto 45 min in presence of NADPH by LC-MS analysis; format: ADME; conditions: liver microsomes, read-out: Stability
[14] = Microsomal stability in dog liver microsome assessed as compound remaining measured upto 45 min in presence of NADPH by LC-MS analysis; format: ADME, Canis lupus familiaris; conditions: liver microsomes, read-out: Stability
[15] = biological target: T2, Cytochrome P450 1A2 (Homo sapiens, UniProt P05177); test: Inhibition of CYP1A2 in human liver microsomes using phenacetin as substrate incubated for 10 min in presence of NADPH by LC-MS/MS analysis; format: ADME, Microsome
T2 sequence (P05177 whole entry): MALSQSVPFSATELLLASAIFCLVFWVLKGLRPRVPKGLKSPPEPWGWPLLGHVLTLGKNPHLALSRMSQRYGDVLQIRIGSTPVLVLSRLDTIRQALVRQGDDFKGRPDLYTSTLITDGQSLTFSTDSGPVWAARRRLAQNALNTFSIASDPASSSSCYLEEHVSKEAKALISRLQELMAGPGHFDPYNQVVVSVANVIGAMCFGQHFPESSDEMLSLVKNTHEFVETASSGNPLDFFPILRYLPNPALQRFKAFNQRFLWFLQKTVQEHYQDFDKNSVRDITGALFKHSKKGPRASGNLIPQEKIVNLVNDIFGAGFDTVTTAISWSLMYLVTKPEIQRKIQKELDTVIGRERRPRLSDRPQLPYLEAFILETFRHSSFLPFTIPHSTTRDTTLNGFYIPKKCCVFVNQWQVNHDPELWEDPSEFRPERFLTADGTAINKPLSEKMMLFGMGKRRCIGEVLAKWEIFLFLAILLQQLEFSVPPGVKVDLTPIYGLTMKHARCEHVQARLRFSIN

[16] = biological target: Cytochrome P450 2C9 (Homo sapiens, UniProt P11712); test: Inhibition of CYP2C9 in human liver microsomes using diclofenac as substrate incubated for 10 min in presence of NADPH by LC-MS/MS analysis; format: ADME, Microsome
Sequence of Cytochrome P450 2C9 (P11712 whole entry): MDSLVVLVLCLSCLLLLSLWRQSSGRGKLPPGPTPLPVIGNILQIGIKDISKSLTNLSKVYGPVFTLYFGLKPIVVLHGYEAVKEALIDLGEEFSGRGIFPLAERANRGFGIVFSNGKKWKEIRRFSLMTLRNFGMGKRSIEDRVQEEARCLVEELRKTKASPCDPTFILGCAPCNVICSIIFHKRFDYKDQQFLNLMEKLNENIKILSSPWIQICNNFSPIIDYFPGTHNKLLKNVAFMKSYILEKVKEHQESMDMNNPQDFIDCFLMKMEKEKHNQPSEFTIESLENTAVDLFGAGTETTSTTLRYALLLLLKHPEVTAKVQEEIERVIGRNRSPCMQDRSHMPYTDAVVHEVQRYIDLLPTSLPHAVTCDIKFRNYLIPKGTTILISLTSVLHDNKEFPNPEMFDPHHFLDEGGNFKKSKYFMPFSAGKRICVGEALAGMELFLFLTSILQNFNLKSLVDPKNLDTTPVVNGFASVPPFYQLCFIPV

[17] = biological target: Cytochrome P450 2C19 (Homo sapiens, UniProt P33261); test: Inhibition of CYP2C19 in human liver microsomes using mephenytoin as substrate incubated for 45 min in presence of NADPH by LC-MS/MS analysis; format: ADME, Microsome
Sequence of Cytochrome P450 2C19 (P33261 whole entry): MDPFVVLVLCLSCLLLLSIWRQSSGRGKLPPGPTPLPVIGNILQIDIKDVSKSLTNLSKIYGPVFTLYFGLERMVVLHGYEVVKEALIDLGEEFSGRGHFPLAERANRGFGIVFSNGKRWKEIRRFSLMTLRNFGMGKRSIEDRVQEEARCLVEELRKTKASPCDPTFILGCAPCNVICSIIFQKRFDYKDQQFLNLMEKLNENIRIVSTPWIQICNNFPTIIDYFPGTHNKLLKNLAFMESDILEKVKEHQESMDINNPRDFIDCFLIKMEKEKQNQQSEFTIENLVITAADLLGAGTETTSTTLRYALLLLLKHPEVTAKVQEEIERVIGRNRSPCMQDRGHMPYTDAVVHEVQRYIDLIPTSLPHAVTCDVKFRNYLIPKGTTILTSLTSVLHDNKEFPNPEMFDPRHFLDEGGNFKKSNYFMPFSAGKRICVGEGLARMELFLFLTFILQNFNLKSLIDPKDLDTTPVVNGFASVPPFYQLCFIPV

[18] = biological target: Cytochrome P450 2D6 (Homo sapiens, UniProt P10635); test: Inhibition of CYP2D6 in human liver microsomes using dextromethorphan as substrate incubated for 20 min in presence of NADPH by LC-MS/MS analysis; format: ADME, Microsome
Sequence of Cytochrome P450 2D6 (P10635 whole entry): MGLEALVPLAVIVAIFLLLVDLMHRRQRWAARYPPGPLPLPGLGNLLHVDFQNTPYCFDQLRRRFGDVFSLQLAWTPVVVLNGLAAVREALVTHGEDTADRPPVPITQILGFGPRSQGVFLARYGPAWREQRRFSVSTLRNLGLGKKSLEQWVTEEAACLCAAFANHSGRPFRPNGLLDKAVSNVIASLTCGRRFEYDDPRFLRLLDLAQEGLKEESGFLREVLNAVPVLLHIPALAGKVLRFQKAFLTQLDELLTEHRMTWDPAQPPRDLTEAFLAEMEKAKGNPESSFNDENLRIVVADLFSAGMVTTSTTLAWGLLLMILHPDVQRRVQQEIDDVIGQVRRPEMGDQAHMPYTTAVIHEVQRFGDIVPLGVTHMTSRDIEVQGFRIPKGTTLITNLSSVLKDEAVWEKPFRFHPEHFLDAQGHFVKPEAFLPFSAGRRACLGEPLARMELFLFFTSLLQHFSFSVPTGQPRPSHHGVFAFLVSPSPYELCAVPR

[19] = biological target: Cytochrome P450 3A4 (Homo sapiens, UniProt P08684); test: Inhibition of CYP3A4 in human liver microsomes using midazolam as substrate incubated for 5 min in presence of NADPH by LC-MS/MS analysis; format: ADME, Microsome
Sequence of Cytochrome P450 3A4 (P08684 whole entry): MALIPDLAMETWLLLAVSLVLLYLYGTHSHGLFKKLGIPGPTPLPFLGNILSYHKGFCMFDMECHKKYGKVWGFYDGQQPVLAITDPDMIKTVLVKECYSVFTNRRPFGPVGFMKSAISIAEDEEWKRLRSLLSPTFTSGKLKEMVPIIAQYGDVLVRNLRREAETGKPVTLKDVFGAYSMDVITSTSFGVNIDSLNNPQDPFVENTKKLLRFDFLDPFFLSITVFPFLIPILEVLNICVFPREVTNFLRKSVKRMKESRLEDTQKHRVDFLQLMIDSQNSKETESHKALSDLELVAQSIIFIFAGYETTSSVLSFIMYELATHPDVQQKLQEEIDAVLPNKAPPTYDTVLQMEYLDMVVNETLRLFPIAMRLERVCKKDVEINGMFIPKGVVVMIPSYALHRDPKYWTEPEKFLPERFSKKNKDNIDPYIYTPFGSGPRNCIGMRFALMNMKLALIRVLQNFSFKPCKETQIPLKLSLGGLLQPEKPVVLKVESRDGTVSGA

[20] = biological target: Voltage-gated inwardly rectifying potassium channel KCNH2 (Homo sapiens, UniProt Q12809); test: Inhibition of human ERG incubated for 150 min by fluorescence polarization based microplate reader analysis; format: toxicity
Sequence of Voltage-gated inwardly rectifying potassium channel KCNH2 (Q12809 whole entry): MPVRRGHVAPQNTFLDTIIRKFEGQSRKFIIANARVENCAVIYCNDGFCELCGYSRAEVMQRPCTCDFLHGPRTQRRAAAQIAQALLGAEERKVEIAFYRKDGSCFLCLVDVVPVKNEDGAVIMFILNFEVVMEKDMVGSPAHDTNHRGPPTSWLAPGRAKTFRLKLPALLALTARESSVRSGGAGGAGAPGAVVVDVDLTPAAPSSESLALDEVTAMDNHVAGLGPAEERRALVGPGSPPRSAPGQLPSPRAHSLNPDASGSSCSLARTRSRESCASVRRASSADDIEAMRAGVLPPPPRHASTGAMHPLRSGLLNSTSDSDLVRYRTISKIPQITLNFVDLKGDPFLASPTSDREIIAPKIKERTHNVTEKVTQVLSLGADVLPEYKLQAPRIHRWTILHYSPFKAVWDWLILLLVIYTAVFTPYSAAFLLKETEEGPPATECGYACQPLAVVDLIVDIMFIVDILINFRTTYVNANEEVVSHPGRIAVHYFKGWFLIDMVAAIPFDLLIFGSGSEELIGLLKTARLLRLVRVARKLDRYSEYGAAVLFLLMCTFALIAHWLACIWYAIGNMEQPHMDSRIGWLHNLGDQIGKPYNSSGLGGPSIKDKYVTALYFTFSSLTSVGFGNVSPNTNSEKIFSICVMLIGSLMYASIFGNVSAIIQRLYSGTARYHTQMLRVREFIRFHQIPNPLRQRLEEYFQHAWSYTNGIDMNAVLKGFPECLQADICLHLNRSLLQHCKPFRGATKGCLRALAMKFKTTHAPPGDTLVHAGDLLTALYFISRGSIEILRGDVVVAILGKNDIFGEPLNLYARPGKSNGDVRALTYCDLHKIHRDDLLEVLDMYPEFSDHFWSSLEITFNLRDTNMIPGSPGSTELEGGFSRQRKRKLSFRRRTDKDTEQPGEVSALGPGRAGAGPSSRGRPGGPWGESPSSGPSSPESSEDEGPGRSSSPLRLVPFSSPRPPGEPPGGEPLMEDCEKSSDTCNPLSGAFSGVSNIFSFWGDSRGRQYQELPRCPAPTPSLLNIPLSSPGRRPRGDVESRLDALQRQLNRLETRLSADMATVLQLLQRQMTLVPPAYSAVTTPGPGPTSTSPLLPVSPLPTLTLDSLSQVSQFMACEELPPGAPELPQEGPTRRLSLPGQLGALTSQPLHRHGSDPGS

[21] = Induction of GLP-1 secretion in human NCI-H716 cells assessed as fold change at 10 uM measured after 1 hr by ELISA method; format: functional
[22] = Induction of GLP-1 secretion in human NCI-H716 cells assessed as fold change at 30 uM measured after 1 hr by ELISA method; format: functional
[23] = test system: INS1; test: Induction of insulin secretion in glucose treated INS1 cells at 0.1 to 1 uM measured after 1 hr by ELISA method; format: functional, cell-based; conditions: Rattus norvegicus, dose 0.1-1 µM
[24] = Dissociation constant, pKa of compound; format: physicochemical
[25] = Lipophilicity, logP of compound; format: physicochemical; conditions: octanol/water
[26] = Kinetic solubility of the compound in water; format: physicochemical; conditions: read-out: Kinetic_solubility

In the case of CCc1cnc(N2CCC(COc3ccc(C4=CC[C@H](C(=O)N5CCC[C@@H]5CO)CC4)cc3)CC2)nc1, the EC50 [1] is reported as 0.0038 µM, the Activity [2] is reported as 22.9% and the Activity [3] is reported as “Dose-dependent-effect; Superior Compared To Sitagliptin”. The bioavailability [4] was 28.3%, the Activity [5] was “Active; Strong Glucose Tolerant Ability” and the Activity [6] was “Active”. The Activity [7] was “Active; Significant Reduction In Body Weight”, the bioavailability [8] was 31.6% and the half-life [9] was 5.4 h. It also gave a half-life [10] of 17.2 h, a half-life [11] of 11.7 h and a remaining at 0.75 h [12] of 53.8%. The remaining at 0.75 h [13] was 48.3%, the remaining at 0.75 h [14] was 62.4% and the IC50 [15] was > 10 µM. For the same molecule, the IC50 [16] was > 10 µM, the IC50 [17] was > 10 µM and the IC50 [18] was > 10 µM. The IC50 [19] was > 10 µM, the IC50 [20] was > 100 µM and the “fold change (FC)” value [21] was 1.7. For the same molecule, the “fold change (FC)” value [22] was 1.8, the Activity [23] was “Active” and the pKa [24] was 2.49. It also gave a logP [25] of 3.45 and a solubility kinetic [26] of 176 µM (≈ 88.8 µg/mL).

From ChEMBL document CHEMBL6153088, “Discovery of 1,4-Disubstituted Cyclohexene Analogues as Selective GPR119 Agonists for the Treatment of Type 2 Diabetes” (J Med Chem, 2025)
